Tested on: subjects with moderate-to-severe plaque psoriasis
Test: Hematology and chemistry laboratory values by CTCAE grade
Format: in vivo, human
Details: through Week 56
Text: The proportion of participants who discontinued study intervention due to one or more AEs was low (n=4). All events were singular in nature with no apparent dose-dependent increase (Table 48 and Table 52). The number of participants with abnormal hematology and chemistry laboratory values with CTCAE toxicity grade≥3 were low through the end of the study (Table 43 through Table 46). There was no apparent dose-dependent increase in laboratory abnormality occurrences.

SMILES: CC(=O)NCCCC[C@@H]1NC(=O)[C@H](Cc2c[nH]c3c(C)cccc23)NC(=O)[C@H]([C@@H](C)O)NC(=O)[C@H](CC(N)=O)NC(=O)[C@@H](NC(C)=O)C(C)(C)SSC(C)(C)[C@@H](C(=O)N[C@@H](Cc2ccc(OCCN)cc2)C(=O)N[C@@H](Cc2ccc3ccccc3c2)C(=O)NC2(C(=O)N[C@@H](CCC(=O)O)C(=O)N[C@@H](CC(N)=O)C(=O)N[C@@H](Cc3cccnc3)C(=O)N(C)CC(N)=O)CCOCC2)NC1=O [IL-23 receptor antagonist peptide, Ac-[Pen]*-N-T-[W(7-Me)]-[Lys(Ac)]-[Pen]*-Phe[4-(2-aminoethoxy)]-[2-Nal]-[THP]-E-N-[3-Pal]-Sarc-NH2 (*[Pen]-[Pen]* formdisulfidebond)]
- Creatinine (increased): Subjects with Grade 3 (100 mg BID): 0
- Creatinine (increased): Subjects with Grade 4 (100 mg BID): 0
- Gamma Glutamyl Transferase (increased): Subjects with Grade 2 (100 mg BID): 0
- Gamma Glutamyl Transferase (increased): Subjects with Grade 3 (100 mg BID): 0
- Gamma Glutamyl Transferase (increased): Subjects with Grade 4 (100 mg BID): 0
- Glucose (decreased): Subjects with Grade 2 (100 mg BID): 0
- Glucose (decreased): Subjects with Grade 3 (100 mg BID): 0
- Glucose (decreased): Subjects with Grade 4 (100 mg BID): 0
- Hemoglobin (g/L) (decreased): subjects with Grade 2 (100 mg BID): 0
- Hemoglobin (g/L) (decreased): subjects with Grade 3 (100 mg BID): 0
- Hemoglobin (g/L) (decreased): subjects with Grade 4 (100 mg BID): 0
- Hemoglobin (g/L) (increased): subjects with Grade 2 (100 mg BID): 0
- Hemoglobin (g/L) (increased): subjects with Grade 3 (100 mg BID): 0
- Hemoglobin (g/L) (increased): subjects with Grade 4 (100 mg BID): 0
- Lymphocytes (×10^9/L) (decreased): subjects with Grade 2 (100 mg BID): 0
- Lymphocytes (×10^9/L) (decreased): subjects with Grade 3 (100 mg BID): 0
- Lymphocytes (×10^9/L) (decreased): subjects with Grade 4 (100 mg BID): 0
- Lymphocytes (×10^9/L) (increased): subjects with Grade 1 (100 mg BID): 0
- Lymphocytes (×10^9/L) (increased): subjects with Grade 2 (100 mg BID): 0
- Lymphocytes (×10^9/L) (increased): subjects with Grade 3 (100 mg BID): 0
- Lymphocytes (×10^9/L) (increased): subjects with Grade 4 (100 mg BID): 0
- Lymphocytes (×10^9/L) (increased): subjects with postbaseline maximum toxicity grade >0 (100 mg BID): 0
- Magnesium (decreased): Subjects with Grade 1 (100 mg BID): 0
- Magnesium (decreased): Subjects with Grade 2 (100 mg BID): 0
- Magnesium (decreased): Subjects with Grade 3 (100 mg BID): 0
- Magnesium (decreased): Subjects with Grade 4 (100 mg BID): 0
- Magnesium (decreased): Subjects with postbaseline maximum toxicity grade >0 (100 mg BID): 0
- Magnesium (increased): Subjects with Grade 2 (100 mg BID): 0
- Magnesium (increased): Subjects with Grade 3 (100 mg BID): 0
- Magnesium (increased): Subjects with Grade 4 (100 mg BID): 0
- Neutrophils (×10^9/L) (decreased): subjects with Grade 3 (100 mg BID): 0
- Neutrophils (×10^9/L) (decreased): subjects with Grade 4 (100 mg BID): 0
- Platelets (×10^9/L) (decreased): subjects with Grade 2 (100 mg BID): 0
- Platelets (×10^9/L) (decreased): subjects with Grade 3 (100 mg BID): 0
- Platelets (×10^9/L) (decreased): subjects with Grade 4 (100 mg BID): 0
- Potassium (decreased): Subjects with Grade 1 (100 mg BID): 0
- Potassium (decreased): Subjects with Grade 2 (100 mg BID): 0
- Potassium (decreased): Subjects with Grade 3 (100 mg BID): 0
- Potassium (decreased): Subjects with Grade 4 (100 mg BID): 0
- Potassium (decreased): Subjects with postbaseline maximum toxicity grade >0 (100 mg BID): 0
- Potassium (increased): Subjects with Grade 1 (100 mg BID): 5
- Potassium (increased): Subjects with Grade 2 (100 mg BID): 0
- Potassium (increased): Subjects with Grade 3 (100 mg BID): 0
- Potassium (increased): Subjects with Grade 4 (100 mg BID): 0
- Potassium (increased): Subjects with postbaseline maximum toxicity grade >0 (100 mg BID): 5
- Sodium (decreased): Subjects with Grade 1 (100 mg BID): 0
- Sodium (decreased): Subjects with Grade 2 (100 mg BID): 0
- Sodium (decreased): Subjects with Grade 3 (100 mg BID): 0
- Sodium (decreased): Subjects with Grade 4 (100 mg BID): 0
- Sodium (decreased): Subjects with postbaseline maximum toxicity grade >0 (100 mg BID): 0
- Sodium (increased): Subjects with Grade 2 (100 mg BID): 0
- Sodium (increased): Subjects with Grade 3 (100 mg BID): 0
- Sodium (increased): Subjects with Grade 4 (100 mg BID): 0
- Total Bilirubin (increased): Subjects with Grade 2 (100 mg BID): 0
- Total Bilirubin (increased): Subjects with Grade 3 (100 mg BID): 0
- Total Bilirubin (increased): Subjects with Grade 4 (100 mg BID): 0
- Triglycerides (increased): Subjects with Grade 4 (100 mg BID): 0
- WBC (×10^9/L) (decreased): subjects with Grade 2 (100 mg BID): 0
- WBC (×10^9/L) (decreased): subjects with Grade 3 (100 mg BID): 0
- WBC (×10^9/L) (decreased): subjects with Grade 4 (100 mg BID): 0
- WBC (×10^9/L) (increased): subjects with Grade 1 (100 mg BID): 0
- WBC (×10^9/L) (increased): subjects with Grade 2 (100 mg BID): 0
- WBC (×10^9/L) (increased): subjects with Grade 3 (100 mg BID): 0
- WBC (×10^9/L) (increased): subjects with Grade 4 (100 mg BID): 0
- WBC (×10^9/L) (increased): subjects with postbaseline maximum toxicity grade >0 (100 mg BID): 0
- Alanine Aminotransferase (increased): Subjects with Grade 1 (100 mg QD): 12
- Alanine Aminotransferase (increased): Subjects with Grade 3 (100 mg QD): 0
- Alanine Aminotransferase (increased): Subjects with Grade 4 (100 mg QD): 0
- Albumin (decreased): Subjects with Grade 1 (100 mg QD): 0
- Albumin (decreased): Subjects with Grade 2 (100 mg QD): 0
- Albumin (decreased): Subjects with Grade 3 (100 mg QD): 0
- Albumin (decreased): Subjects with Grade 4 (100 mg QD): 0
- Albumin (decreased): Subjects with postbaseline maximum toxicity grade >0 (100 mg QD): 0
- Alkaline Phosphatase (increased): Subjects with Grade 2 (100 mg QD): 0
- Alkaline Phosphatase (increased): Subjects with Grade 3 (100 mg QD): 0
- Alkaline Phosphatase (increased): Subjects with Grade 4 (100 mg QD): 0
- Aspartate Aminotransferase (increased): Subjects with Grade 1 (100 mg QD): 9
- Aspartate Aminotransferase (increased): Subjects with Grade 3 (100 mg QD): 0
- Aspartate Aminotransferase (increased): Subjects with Grade 4 (100 mg QD): 0
- Aspartate Aminotransferase (increased): Subjects with postbaseline maximum toxicity grade >0 (100 mg QD): 10
- Calcium corrected (decreased): Subjects with Grade 2 (100 mg QD): 0
- Calcium corrected (decreased): Subjects with Grade 3 (100 mg QD): 0
- Calcium corrected (decreased): Subjects with Grade 4 (100 mg QD): 0
- Calcium corrected (increased): Subjects with Grade 2 (100 mg QD): 0
- Calcium corrected (increased): Subjects with Grade 3 (100 mg QD): 0
- Calcium corrected (increased): Subjects with Grade 4 (100 mg QD): 0
- Cholesterol (increased): Subjects with Grade 1 (100 mg QD): 0
- Cholesterol (increased): Subjects with Grade 3 (100 mg QD): 0
- Cholesterol (increased): Subjects with Grade 4 (100 mg QD): 0
- Creatine Kinase (increased): Subjects with Grade 2 (100 mg QD): 0
- Creatine Kinase (increased): Subjects with Grade 3 (100 mg QD): 0
- Creatinine (increased): Subjects with Grade 2 (100 mg QD): 0
- Creatinine (increased): Subjects with Grade 3 (100 mg QD): 0
- Creatinine (increased): Subjects with Grade 4 (100 mg QD): 0
- Gamma Glutamyl Transferase (increased): Subjects with Grade 1 (100 mg QD): 5
- Gamma Glutamyl Transferase (increased): Subjects with Grade 2 (100 mg QD): 0
- Gamma Glutamyl Transferase (increased): Subjects with Grade 3 (100 mg QD): 0
- Gamma Glutamyl Transferase (increased): Subjects with Grade 4 (100 mg QD): 0
- Gamma Glutamyl Transferase (increased): Subjects with postbaseline maximum toxicity grade >0 (100 mg QD): 5
- Glucose (decreased): Subjects with Grade 3 (100 mg QD): 0
- Glucose (decreased): Subjects with Grade 4 (100 mg QD): 0
- Hemoglobin (g/L) (decreased): subjects with Grade 2 (100 mg QD): 0
- Hemoglobin (g/L) (decreased): subjects with Grade 3 (100 mg QD): 0
- Hemoglobin (g/L) (decreased): subjects with Grade 4 (100 mg QD): 0
- Hemoglobin (g/L) (increased): subjects with Grade 1 (100 mg QD): 0
- Hemoglobin (g/L) (increased): subjects with Grade 2 (100 mg QD): 0
- Hemoglobin (g/L) (increased): subjects with Grade 3 (100 mg QD): 0
- Hemoglobin (g/L) (increased): subjects with Grade 4 (100 mg QD): 0
- Hemoglobin (g/L) (increased): subjects with postbaseline maximum toxicity grade >0 (100 mg QD): 0
- Lymphocytes (×10^9/L) (decreased): subjects with Grade 3 (100 mg QD): 0
- Lymphocytes (×10^9/L) (decreased): subjects with Grade 4 (100 mg QD): 0
- Lymphocytes (×10^9/L) (increased): subjects with Grade 1 (100 mg QD): 0
- Lymphocytes (×10^9/L) (increased): subjects with Grade 3 (100 mg QD): 0
- Lymphocytes (×10^9/L) (increased): subjects with Grade 4 (100 mg QD): 0
- Magnesium (decreased): Subjects with Grade 2 (100 mg QD): 0
- Magnesium (decreased): Subjects with Grade 3 (100 mg QD): 0
- Magnesium (decreased): Subjects with Grade 4 (100 mg QD): 0
- Magnesium (increased): Subjects with Grade 2 (100 mg QD): 0
- Magnesium (increased): Subjects with Grade 3 (100 mg QD): 0
- Magnesium (increased): Subjects with Grade 4 (100 mg QD): 0
- Neutrophils (×10^9/L) (decreased): subjects with Grade 3 (100 mg QD): 0
- Neutrophils (×10^9/L) (decreased): subjects with Grade 4 (100 mg QD): 0
- Platelets (×10^9/L) (decreased): subjects with Grade 2 (100 mg QD): 0
- Platelets (×10^9/L) (decreased): subjects with Grade 3 (100 mg QD): 0
- Platelets (×10^9/L) (decreased): subjects with Grade 4 (100 mg QD): 0
- Potassium (decreased): Subjects with Grade 1 (100 mg QD): 0
- Potassium (decreased): Subjects with Grade 3 (100 mg QD): 0
- Potassium (decreased): Subjects with Grade 4 (100 mg QD): 0
- Potassium (increased): Subjects with Grade 1 (100 mg QD): 0
- Potassium (increased): Subjects with Grade 3 (100 mg QD): 0
- Potassium (increased): Subjects with Grade 4 (100 mg QD): 0
- Sodium (decreased): Subjects with Grade 1 (100 mg QD): 0
- Sodium (decreased): Subjects with Grade 2 (100 mg QD): 0
- Sodium (decreased): Subjects with Grade 3 (100 mg QD): 0
- Sodium (decreased): Subjects with Grade 4 (100 mg QD): 0
- Sodium (decreased): Subjects with postbaseline maximum toxicity grade >0 (100 mg QD): 0
- Sodium (increased): Subjects with Grade 2 (100 mg QD): 0
- Sodium (increased): Subjects with Grade 3 (100 mg QD): 0
- Sodium (increased): Subjects with Grade 4 (100 mg QD): 0
- Total Bilirubin (increased): Subjects with Grade 1 (100 mg QD): 7
- Total Bilirubin (increased): Subjects with Grade 2 (100 mg QD): 0
- Total Bilirubin (increased): Subjects with Grade 3 (100 mg QD): 0
- Total Bilirubin (increased): Subjects with Grade 4 (100 mg QD): 0
- Total Bilirubin (increased): Subjects with postbaseline maximum toxicity grade >0 (100 mg QD): 7
- Triglycerides (increased): Subjects with Grade 3 (100 mg QD): 0
- Triglycerides (increased): Subjects with Grade 4 (100 mg QD): 0
- Triglycerides (increased): Subjects with postbaseline maximum toxicity grade >0 (100 mg QD): 5
- WBC (×10^9/L) (decreased): subjects with Grade 3 (100 mg QD): 0
- WBC (×10^9/L) (decreased): subjects with Grade 4 (100 mg QD): 0
- WBC (×10^9/L) (decreased): subjects with postbaseline maximum toxicity grade >0 (100 mg QD): 5
- WBC (×10^9/L) (increased): subjects with Grade 1 (100 mg QD): 0

Source: patent US20260232767A1, “INTERLEUKIN-23 RECEPTOR ANTAGONIST PEPTIDES FOR USE IN THE TREATMENT OF PSORIASIS” (Janssen Pharmaceutica NV, priority 2023, published 2026)
